Results published in US20190083563A1 (priority 2014, published 2019).
In brackets after ≈: the same amount, converted by molar mass.

How the values were obtained:
in vitro = details: dog
influenza virus H1N1 [1] = type: cell-based, influenza A virus
influenza A virus H1N1 = experiment: microbe, parasite or virus in culture; type: cell-based
influenza A virus H5N1 = experiment: microbe, parasite or virus in culture; type: cell-based
influenza B virus = experiment: microbe, parasite or virus in culture; type: cell-based
influenza A virus H3N2 = experiment: microbe, parasite or virus in culture; type: cell-based
influenza virus H1N1 [2] = experiment: Investigation on cell binding of influenza virus (virus and sample mixed, 4° C., MTT cell viability); type: cell-based, influenza A virus

CCOC(=O)C1=C[C@@H](OC(CC)CC)[C@H](NC(C)=O)[C@@H](N)C1 [Tamiflu]
CC50 (in vitro): 1110 µg/mL (≈ 3560 µM)
CPE of cells, virus preventive effect (influenza virus H1N1 [1]): all the cells treated with Tamiflu were dead
observing the cells using a microscope, virus preventive effect (influenza virus H1N1 [1]): infected cell state
observing the cells by a microscope, post-treatment (influenza A virus H1N1): many cells were infected and dead
SI (influenza A virus H1N1; H1N1, CC50 value divided by the EC50 value): 317
EC50 (influenza A virus H1N1; Influenza A virus, H1N1, MDCK cells, post-treatment, 48 hours): 3.5 µg/mL (≈ 11.2 µM)
SI (influenza A virus H5N1; H5N1, CC50 value divided by the EC50 value): 740
EC50 (influenza A virus H5N1; Influenza A virus, H5N1, MDCK, 48 h): 1.5 µg/mL (≈ 4.8 µM)
SI (influenza B virus; CC50 value divided by the EC50 value): 81
EC50 (influenza B virus; MDCK cells, post-treatment, 48 hours): 13.7 µg/mL (≈ 43.9 µM)
SI (influenza A virus H3N2; H3N2, CC50 value divided by the EC50 value): 317
EC50 (influenza A virus H3N2; Influenza A virus, H3N2, MDCK cells, post-treatment, 48 hours): 3.5 µg/mL (≈ 11.2 µM)
antiviral effect in virus binding test (influenza virus H1N1 [2]): no antiviral effect
